Literature values, collected in patent US20250248986A1, “ANTIFUNGAL DRUG INHALATION FORMULATIONS” (priority 2024, published 2025).
Like-named read-outs stand apart in the source and are kept apart here.

In the case of `CCC(C)n1ncn(-c2ccc(N3CCN(c4ccc(OCC5COC(Cn6cncn6)(c6ccc(Cl)cc6Cl)O5)cc4)CC3)cc2)c1=O` (racemic) [Itraconazole], the water solubility (neutral conditions) is given as “about 1 ng/ml” and the water solubility (pH 1) is given as “about 1 μg/ml”.
In the case of `CC[C@@H]([C@H](C)O)n1ncn(-c2ccc(N3CCN(c4ccc(OC[C@@H]5CO[C@@](Cn6cncn6)(c6ccc(F)cc6F)C5)cc4)CC3)cc2)c1=O` [Posaconazole], the “solubility of the free base” value (pH of about 6.4 or higher) is listed as “less than 1 μg/ml”.
